According to patent US11207330B2, “Mirtazapine for use in medication overuse headache based on tension-type headache” (Curatis AG, priority 2019, dated 2021):

Columns and labels:
[1] = system: patients with daily medication overuse headache (MOH) based on tension-type headache; experiment: Headache diary AUC (headache duration multiplied with headache intensity) in MOH patients, placebo then mirtazapine; type: in vivo, human; conditions: for AUC (sum of daily headache duration multiplied with headache intensity): 15 to 30 mg mirtazapine per day for 8 weeks, last four weeks of intake, analgesics allowed; for Reduction of AUC versus placebo: mirtazapine 15 to 30 mg per day vs placebo period, last four weeks
Method: (§1) a) Patients had daily medication overuse headache (MOH) originating from daily analgesic use primarily against tension-type headache as primary headache. They were treated first with placebo for 8 weeks, followed by two weeks of wash-out (taking placebo), and then administration of 15 to 30 mg of mirtazapine per day for 8 weeks. During that time they were allowed to continue taking their analgesics as usual, if they felt it was necessary.
At the same time, they had to keep a diary where they had to write down the frequency and duration of their headache as well as the headache intensity. After completion of the study the diaries were evaluated and the daily recordings of headache duration was multiplied with headache intensity to give the “AUC”, which means “area under the curve”. The results shown in table 1 and table 2 below are from the last four weeks of intake of either placebo or mirtazapine. […] It can be seen that both patients experienced improvement of their headache upon administration of mirtazapine.
FIG. 1 depicts the subjective well-being of patients, i.e. decreased number of headache attacks, shorter headache attacks with lower headache intensity. The lower the count of the y-axis, the better is the subjective well-being. AUC means area under the curve. AUC was calculated as the sum of the daily recordings of headache duration multiplied with headache intensity.

[2] = system: patients with daily medication overuse headache (MOH) based on tension-type headache; experiment: Intake of overused analgesic medication recorded by the same MOH patients; type: in vivo, human; conditions: for Analgesics Usage: 15 to 30 mg mirtazapine per day for 8 weeks, last four weeks of intake; for Reduction of Analgesics Usage versus placebo: mirtazapine 15 to 30 mg per day vs placebo period, last four weeks
Method: as §1
b) Moreover, the intake of overused analgesic medication was recorded by the same patients and during the time frame as described above in (a). Patient 1 reduced the intake of overused medication by 80% (Table 2). As for patient 2, the reduction is 15%, whereby both patients additionally benefit from improved well-being, i.e. from decreased number of headache attacks, shorter headache attacks with lower headache intensity (see above).

CN1CCN2c3ncccc3Cc3ccccc3C2C1 (racemic) [Mirtazapine, (RS)-(±)-2-methyl-1,2,3,4,10,14b-hexahydropyrazino[2,1-a]pyrido[2,3-c][2]benzazepine]
AUC (sum of daily headache duration multiplied with headache intensity) ([1]; Patient 1): 420 | Reduction of AUC versus placebo ([1]; Patient 1): 62% | AUC (sum of daily headache duration multiplied with headache intensity) ([1]; Patient 2): 895 | Reduction of AUC versus placebo ([1]; Patient 2): 34% | Analgesics Usage ([2]; Patient 1): 2 | Reduction of Analgesics Usage versus placebo ([2]; Patient 1): 80% | Reduction of Analgesics Usage versus placebo ([2]; Patient 1, listed as mirtazapine): 80% | Analgesics Usage ([2]; Patient 2): 47 | Reduction of Analgesics Usage versus placebo ([2]; Patient 2): 15% | Reduction of Analgesics Usage versus placebo ([2]; Patient 2, listed as mirtazapine): 15%
